# Measurements reported in article PMC4501006, “Preliminary Characterization and In Vivo Studies of Structurally Identical ^18F- and ^125I-Labeled Benzyloxybenzenes for PET/SPECT Imaging of β-Amyloid Plaques” (Scientific Reports, 2015).
# “And” between values parts separate entries of the source, which are not always exact repeats. Identical values can stand only once.
# Key:
# [1] = Partition coefficient determination (log D); assay type: physicochemical
# Method: An ideal Aβ imaging probe would combine a high binding affinity to Aβ plaques and excellent pharmacokinetics with high initial brain uptake and rapid washout from normal brain regions. Thus, the partition coefficients of these four radiolabeled ligands were determined to estimate their ability to penetrate the BBB.
# [2] = In vivo biodistribution in normal ICR mice; details: i.v.
# [3] = carrier-added, SA ≈ 60 GBq/μmol, 2 min
# [4] = carrier-added, SA ≈ 60 GBq/μmol, 10 min
# [5] = carrier-added, SA ≈ 60 GBq/μmol, 30 min
# [6] = carrier-added, SA ≈ 60 GBq/μmol, 60 min
smiles,measurement,setting,value
FCCOc1ccc(OCc2ccc([125I])cc2)cc1 [[^125I]7a],logD,[1],3.96 ± 0.22
same,"Biodistribution of radioactivity, blood",[2]; [3],3.30 ± 0.43 % injected dose per gram
same,"Biodistribution of radioactivity, brain",[2]; [3],5.39 % injected dose per gram
same,"Biodistribution of radioactivity, heart",[2]; [3],7.34 ± 0.69 % injected dose per gram
same,"Biodistribution of radioactivity, intestine",[2]; [3],4.57 ± 0.96 % injected dose per organ
same,"Biodistribution of radioactivity, kidney",[2]; [3],9.80 ± 1.05 % injected dose per gram
same,"Biodistribution of radioactivity, liver",[2]; [3],12.12 ± 2.01 % injected dose per gram
same,"Biodistribution of radioactivity, lung",[2]; [3],7.77 ± 0.18 % injected dose per gram
same,"Biodistribution of radioactivity, muscle",[2]; [3],3.37 ± 0.50 % injected dose per gram
same,"Biodistribution of radioactivity, pancreas",[2]; [3],6.79 ± 1.53 % injected dose per gram
same,"Biodistribution of radioactivity, spleen",[2]; [3],3.63 ± 0.83 % injected dose per gram
same,"Biodistribution of radioactivity, stomach",[2]; [3],1.15 ± 0.21 % injected dose per organ
same,"Biodistribution of radioactivity, thyroid",[2]; [3],0.12 ± 0.03 % injected dose per organ
same,"Biodistribution of radioactivity, brain","[2]; carrier-added, SA ≈ 60 GBq/μmol, 2 min, listed as [125I]7a",5.39 ± 0.36 % injected dose per gram
same,"Biodistribution of radioactivity, blood",[2]; [4],2.31 ± 0.22 % injected dose per gram
same,"Biodistribution of radioactivity, brain",[2]; [4],3.51 ± 0.36 % injected dose per gram
same,"Biodistribution of radioactivity, heart",[2]; [4],2.32 ± 0.15 % injected dose per gram
same,"Biodistribution of radioactivity, intestine",[2]; [4],8.51 ± 0.48 % injected dose per organ
same,"Biodistribution of radioactivity, kidney",[2]; [4],10.01 ± 1.43 % injected dose per gram
same,"Biodistribution of radioactivity, liver",[2]; [4],11.30 ± 0.58 % injected dose per gram
same,"Biodistribution of radioactivity, lung",[2]; [4],6.50 ± 0.69 % injected dose per gram
same,"Biodistribution of radioactivity, muscle",[2]; [4],1.42 ± 0.20 % injected dose per gram
same,"Biodistribution of radioactivity, pancreas",[2]; [4],2.79 ± 0.35 % injected dose per gram
same,"Biodistribution of radioactivity, spleen",[2]; [4],1.53 ± 0.23 % injected dose per gram
same,"Biodistribution of radioactivity, stomach",[2]; [4],0.74 ± 0.09 % injected dose per organ
same,"Biodistribution of radioactivity, thyroid",[2]; [4],0.11 ± 0.01 % injected dose per organ
same,"Biodistribution of radioactivity, blood",[2]; [5],1.39 ± 0.15 % injected dose per gram
same,"Biodistribution of radioactivity, brain",[2]; [5],0.97 ± 0.11 % injected dose per gram
same,"Biodistribution of radioactivity, heart",[2]; [5],0.96 ± 0.13 % injected dose per gram
same,"Biodistribution of radioactivity, intestine",[2]; [5],18.87 ± 2.27 % injected dose per organ
same,"Biodistribution of radioactivity, kidney",[2]; [5],6.25 ± 1.23 % injected dose per gram
same,"Biodistribution of radioactivity, liver",[2]; [5],6.29 ± 0.22 % injected dose per gram
same,"Biodistribution of radioactivity, lung",[2]; [5],4.30 ± 0.58 % injected dose per gram
same,"Biodistribution of radioactivity, muscle",[2]; [5],0.95 ± 0.08 % injected dose per gram
same,"Biodistribution of radioactivity, pancreas",[2]; [5],1.06 ± 0.16 % injected dose per gram
same,"Biodistribution of radioactivity, spleen",[2]; [5],0.62 ± 0.03 % injected dose per gram
same,"Biodistribution of radioactivity, stomach",[2]; [5],1.67 ± 0.33 % injected dose per organ
same,"Biodistribution of radioactivity, thyroid",[2]; [5],0.12 ± 0.04 % injected dose per organ
same,"Biodistribution of radioactivity, blood",[2]; [6],0.83 ± 0.06 % injected dose per gram
same,"Biodistribution of radioactivity, brain",[2]; [6],0.37 % injected dose per gram
same,"Biodistribution of radioactivity, heart",[2]; [6],0.55 ± 0.10 % injected dose per gram
same,"Biodistribution of radioactivity, intestine",[2]; [6],25.30 ± 3.94 % injected dose per organ
same,"Biodistribution of radioactivity, kidney",[2]; [6],3.40 ± 0.48 % injected dose per gram
same,"Biodistribution of radioactivity, liver",[2]; [6],3.31 ± 0.37 % injected dose per gram
same,"Biodistribution of radioactivity, lung",[2]; [6],1.91 ± 0.29 % injected dose per gram
same,"Biodistribution of radioactivity, muscle",[2]; [6],0.72 ± 0.20 % injected dose per gram
same,"Biodistribution of radioactivity, pancreas",[2]; [6],0.57 ± 0.05 % injected dose per gram
same,"Biodistribution of radioactivity, spleen",[2]; [6],0.36 ± 0.03 % injected dose per gram
same,"Biodistribution of radioactivity, stomach",[2]; [6],1.04 ± 0.30 % injected dose per organ
same,"Biodistribution of radioactivity, thyroid",[2]; [6],0.22 ± 0.05 % injected dose per organ
same,"Biodistribution of radioactivity, brain","[2]; carrier-added, SA ≈ 60 GBq/μmol, 60 min, listed as [125I]7a",0.37 ± 0.05 % injected dose per gram
same,brain2 min/brain60 min ratio,[2],12.8
same,"Biodistribution of radioactivity, blood",[2]; 2 min,5.03 ± 0.20 % injected dose per gram
same,"Biodistribution of radioactivity, brain",[2]; 2 min,> 5 % injected dose per gram and 7.04 % injected dose per gram
same,"Biodistribution of radioactivity, heart",[2]; 2 min,9.70 ± 2.25 % injected dose per gram
same,"Biodistribution of radioactivity, intestine",[2]; 2 min,6.46 ± 0.79 % injected dose per organ
same,"Biodistribution of radioactivity, kidney",[2]; 2 min,12.03 ± 1.20 % injected dose per gram
same,"Biodistribution of radioactivity, liver",[2]; 2 min,22.45 ± 3.88 % injected dose per gram
same,"Biodistribution of radioactivity, lung",[2]; 2 min,10.78 ± 2.33 % injected dose per gram
same,"Biodistribution of radioactivity, muscle",[2]; 2 min,3.72 ± 0.51 % injected dose per gram
same,"Biodistribution of radioactivity, pancreas",[2]; 2 min,8.15 ± 1.09 % injected dose per gram
same,"Biodistribution of radioactivity, spleen",[2]; 2 min,3.86 ± 0.21 % injected dose per gram
same,"Biodistribution of radioactivity, stomach",[2]; 2 min,1.32 ± 0.21 % injected dose per organ
same,"Biodistribution of radioactivity, thyroid",[2]; 2 min,0.12 ± 0.02 % injected dose per organ
same,"Biodistribution of radioactivity, brain","[2]; 2 min, listed as [125I]7a",7.04 ± 0.89 % injected dose per gram
same,"Biodistribution of radioactivity, blood",[2]; 10 min,3.03 ± 0.48 % injected dose per gram
same,"Biodistribution of radioactivity, brain",[2]; 10 min,2.73 ± 0.25 % injected dose per gram
same,"Biodistribution of radioactivity, heart",[2]; 10 min,2.01 ± 0.14 % injected dose per gram
same,"Biodistribution of radioactivity, intestine",[2]; 10 min,17.21 ± 2.33 % injected dose per organ
same,"Biodistribution of radioactivity, kidney",[2]; 10 min,9.53 ± 1.58 % injected dose per gram
same,"Biodistribution of radioactivity, liver",[2]; 10 min,14.43 ± 2.37 % injected dose per gram
same,"Biodistribution of radioactivity, lung",[2]; 10 min,7.44 ± 1.59 % injected dose per gram
same,"Biodistribution of radioactivity, muscle",[2]; 10 min,1.28 ± 0.11 % injected dose per gram
same,"Biodistribution of radioactivity, pancreas",[2]; 10 min,2.07 ± 0.30 % injected dose per gram
same,"Biodistribution of radioactivity, spleen",[2]; 10 min,1.32 ± 0.13 % injected dose per gram
same,"Biodistribution of radioactivity, stomach",[2]; 10 min,1.08 ± 0.24 % injected dose per organ
same,"Biodistribution of radioactivity, thyroid",[2]; 10 min,0.09 ± 0.02 % injected dose per organ
same,"Biodistribution of radioactivity, blood",[2]; 30 min,2.17 ± 0.31 % injected dose per gram
same,"Biodistribution of radioactivity, brain",[2]; 30 min,1.05 ± 0.22 % injected dose per gram
same,"Biodistribution of radioactivity, heart",[2]; 30 min,1.65 ± 0.43 % injected dose per gram
same,"Biodistribution of radioactivity, intestine",[2]; 30 min,19.88 ± 4.22 % injected dose per organ
same,"Biodistribution of radioactivity, kidney",[2]; 30 min,6.71 ± 0.78 % injected dose per gram
same,"Biodistribution of radioactivity, liver",[2]; 30 min,12.35 ± 2.83 % injected dose per gram
same,"Biodistribution of radioactivity, lung",[2]; 30 min,4.25 ± 0.41 % injected dose per gram
same,"Biodistribution of radioactivity, muscle",[2]; 30 min,1.29 ± 0.31 % injected dose per gram
same,"Biodistribution of radioactivity, pancreas",[2]; 30 min,2.61 ± 0.59 % injected dose per gram
same,"Biodistribution of radioactivity, spleen",[2]; 30 min,1.26 ± 0.20 % injected dose per gram
same,"Biodistribution of radioactivity, stomach",[2]; 30 min,4.38 ± 1.00 % injected dose per organ
same,"Biodistribution of radioactivity, thyroid",[2]; 30 min,0.12 ± 0.01 % injected dose per organ
same,"Biodistribution of radioactivity, blood",[2]; 60 min,1.96 ± 0.31 % injected dose per gram
same,"Biodistribution of radioactivity, brain",[2]; 60 min,0.55 % injected dose per gram
same,"Biodistribution of radioactivity, heart",[2]; 60 min,1.00 ± 0.18 % injected dose per gram
same,"Biodistribution of radioactivity, intestine",[2]; 60 min,20.21 ± 7.78 % injected dose per organ
same,"Biodistribution of radioactivity, kidney",[2]; 60 min,6.56 ± 1.10 % injected dose per gram
same,"Biodistribution of radioactivity, liver",[2]; 60 min,5.15 ± 1.09 % injected dose per gram
same,"Biodistribution of radioactivity, lung",[2]; 60 min,4.04 ± 1.63 % injected dose per gram
same,"Biodistribution of radioactivity, muscle",[2]; 60 min,1.36 ± 0.25 % injected dose per gram
same,"Biodistribution of radioactivity, pancreas",[2]; 60 min,1.97 ± 0.48 % injected dose per gram
same,"Biodistribution of radioactivity, spleen",[2]; 60 min,1.14 ± 0.56 % injected dose per gram
same,"Biodistribution of radioactivity, stomach",[2]; 60 min,2.44 ± 0.97 % injected dose per organ
same,"Biodistribution of radioactivity, thyroid",[2]; 60 min,0.16 ± 0.03 % injected dose per organ
same,"Biodistribution of radioactivity, brain","[2]; 60 min, listed as [125I]7a",0.55 ± 0.11 % injected dose per gram
